Columns and labels:
[1] = system: Pten^fl/fl organoid cultures; test: 35S methionine incorporation (newly synthesized proteins) and ATF4 expression in organoid cultures; format: cell-based, mouse; conditions: ISRIB treatment
Procedure: (§1) To evaluate the effects of these key oncogenes on global protein synthesis, newly synthesized proteins were assessed by incorporation of ^35S-labeled methionine in organoid cultures. Primary mouse three-dimensional organoid cultures were established to recapitulate the cellular environment of the murine prostate gland ex vivo. Organoids were derived from dissociated mouse prostate tissue containing a mixed population of luminal and basal cell types to mimic the histology observed in vivo. Western blot analysis confirmed that Myc^Tg expression and PTEN loss were evident and associated with increased GFP expression and AKT phosphorylation. […] On the contrary, it was observed that an unanticipated but significant dampening in global protein synthesis occurred in Ptenfl/fl;MycTg mice (P=0.01), despite the fact that these mice developed more aggressive PCa (FIG. 1D).
(§2) A general UPR response may promote adaptation to proteotoxic and ER stress, whereas the activation of P-eIF2α could place a direct brake on the overwhelming burden of protein synthesis that occurs during more aggressive tumorigenesis. To test this hypothesis, the organoid cultures were employed, which recapitulate the in vivo phenotype. […]

[2] = system: Pten^fl/fl;Myc^Tg organoid cultures; test: 35S methionine incorporation (newly synthesized proteins) in organoid cultures; format: cell-based, mouse; conditions: Pten^fl/fl;Myc^Tg cells, ISRIB treatment
Procedure: as §1, §2

[3] = system: Pten^fl/fl;Myc^Tg mice prostate tumors; test: Preclinical trial in mice with developed prostate tumors, MRI prostate volume; format: in vivo
Procedure: (§3) To evaluate the necessity of P-eIF2α for promoting tumor growth or maintenance in vivo, a preclinical trial was conducted. Mice with developed tumors were imaged by magnetic resonance imaging (MRI) to confirm a measurable baseline of prostate volume per mouse and then grouped into cohorts for either vehicle or ISRIB treatment daily over the course of 6 weeks.

[4] = system: Pten^fl/fl mice prostate tumors; test: as above; format: in vivo, mouse
Procedure: as §3

[5] = system: RWPE-1 shPTEN;MYC^OE cells; test: Apoptosis (annexin V-positive cells by flow cytometry) in engineered human prostate epithelial cells; format: cell-based; conditions: 500 nM ISRIB for 9 hours, shPTEN;MYC^OE cells relative to control samples
Procedure: FIGS. 4A and 4B. FIG. 4A depicts quantification of annexin V-positive cells analyzed by flow cytometry relative to control cells after treatment with DMSO or 500 nM ISRIB for 9 hours (n=3, mean±SEM) *P<0.05, t test. FIG. 4B depicts Cox proportional hazards regression results in a Forest plot of hazard ratios and 95% CI for factors associated with risk of clinical progression after surgery. Independent factors are tumor with PTEN loss/low P-eIF2α or PTEN loss/high P-eIF2α versus a reference group with normal PTEN expression; age in years; PSA in nanograms per milliliter; Gleason score>7 versus 6; and pathological stage T3-T4 versus T2 at the time of prostatectomy.
To extend these observations directly to human disease, human cell lines were created to mimic the genetic mouse models. Human RWPE-1 epithelial cells were created to stably knock down PTEN (shPTEN) with or without MYC overexpression. The combination of PTEN loss with increased MYC expression activated PERK signaling and P-eIF2α, showing that the adaptive response that we had observed in mice is also triggered in human prostate cells.

mPCa-PDX tumor = test: Preclinical trial in patient-derived xenograft from lymph node metastasis; format: in vivo, mouse
Procedure: (§4) FIGS. 5A, 5B, 5C, 5D, 5E, 5F, and 5G. FIGS. 5A, 5B, and 5C depict quantification of protein expression as relative mean IF intensity normalized to adjacent stromal tissue for: FIG. 5A: benign, FIG. 5B PCa, and mPCa cell types. FIG. 5D and FIG. 5E depict Kaplan-Meier tumor survival curves for mice bearing pPCa (5D) or mPCa (5E) tumors treated with ISRIB (10 mg/kg) or vehicle (n=8, per cohort; **P=0.01, log-rank test). […] FIG. 5F depicts quantification of PDX tumors treated with vehicle or ISRIB (10 mg/kg); (n=3, ***P<0.001, t test). FIG. 5G depicts quantification of newly synthesized proteins in vivo, assessed by incorporation of OP-Puro within PDX treated with ISRIB (10 mg/kg) or vehicle (n=3 to 4 per arm, mean±SEM; *P<0.05, t test). n.s., not significant. MFI, mean fluorescence intensity.
(§5) Next, it was sought to functionally evaluate whether the UPR pathway could be targeted, specifically through P-eIF2α, in advanced human PCa. Although it is historically difficult to generate human prostate patient-derived xenograft (PDX) models, this was successfully achieved with similar characteristics to the Pten^fl/fl;Myc^Tg mice to assess the effects of ISRIB on cancer growth and mortality. In particular, two PDX models were generated: one derived from a primary tumor, herein referred to as pPCa, and one derived from a lymph node metastasis in the left internal iliac chain from the same patient, herein referred to as mPCa. […] A significant increase in P-eIF2α was observed only in the mPCa (P<0.01).
(§6) To test the therapeutic efficacy of ISRIB in human PCa, a preclinical trial was performed on the stably passaged PDX model.

pPCa-PDX tumor = test: Preclinical trial in patient-derived xenograft from primary tumor; format: in vivo, mouse
Procedure: as §4, §5, §6

mPCa PDX = test: Newly synthesized proteins in vivo by OP-Puro incorporation in PDX; parameters: species or system mouse; conditions: ISRIB 10 mg/kg
Procedure: as §4
(§7) Next, it was determined whether a metastatic PCa tumor, harboring high MYC and loss of PTEN activity in a complex genetic background of human PCa, relies on eIF2α phosphorylation as an adaptive response to restrain global protein synthesis. Therefore, newly synthesized proteins in vivo were assessed by measuring the incorporation of O-propargyl-puromycin (OP-Puro) within the primary and metastatic tumor-derived PDXs, which have low or high P-eIF2α, respectively. […] Within the area of intratumor ATF4 loss, apoptosis and decreased proliferation assessed by TUNEL and Ki67 staining of mPCa PDX was observed.

pPCa tumors = test: as above; parameters: species or system mouse; conditions: ISRIB 10 mg/kg
Procedure: as §4, §7

mCRPC PDX = test: Metastatic castration-resistant PCa PDX, survival and PSMA PET/CT imaging; format: in vivo, mouse
Description: In hormone-sensitive metastatic PCa, androgen deprivation therapy (ADT) remains the mainstay treatment; however, these tumors inevitably develop resistance to ADT and progress into the lethal form of metastatic castration-resistant PCa (mCRPC). Characterization of the hormone-sensitive metastatic disease has not been predictive of outcomes in the clinical setting of lethal mCRPC. To directly study the contribution of P-eIF2α to metastasis, an additional PDX (herein mCRPC PDX) was generated derived from a patient with mCRPC despite prolonged treatment with complete androgen blockage using leuprolide (ADT) and antiandrogen therapy (enzalutamide). Three weeks after implantation of the mCRPC tumor under the mouse renal capsule, tumor dissemination to the liver, distant kidney, lymph nodes, and spleen was observed.
To examine the role of P-eIF2α from the early stages of metastatic growth to late stages of dissemination, a prostate-specific membrane antigen [^68Ga-PSMA-11 PET/computed tomography (CT)] scan was used to trace the progression of very small metastases from early to late stages of dissemination, which were not visible by conventional imaging modalities such as ^18F-DG PET/CT. Prostate-specific membrane antigen (PSMA) is highly expressed on the surface of PCa cells and allows sensitive staging to evaluate therapy response in the clinical setting. […]

PERK = PERK inhibitor as described; cited from earlier work
[6] = pPCa-PDX, low P-eIF2α, ISRIB treatment

O=C(COc1ccc(Cl)cc1)NC1CCC(NC(=O)COc2ccc(Cl)cc2)CC1 (stereo not drawn) [ISRIB]
ATF4 expression [1]: decrease | protein synthesis (newly synthesized proteins) [1]: not altered | newly synthesized proteins [2]: marked increase | tumor size by MRI ([3]; ISRIB-treated Pten^fl/fl;Myc^Tg mice, by 6 weeks): no progression in tumor size | toxicity ([3]; Pten^fl/fl;Myc^Tg mice, daily ISRIB treatment): no signs of toxicity | tumor size by MRI ([3]; Pten^fl/fl;Myc^Tg mice, daily ISRIB, 3 weeks): tumor regression within 3 weeks | immune cell infiltration (CD45) ([3]; after 3 weeks of ISRIB treatment, regardless of prostate tumor genotype): no significant changes | increase in growth over individual baseline measurements ([4]; by 6 weeks): ~40% | tumor size by MRI ([4]; vehicle or daily ISRIB, 3 weeks): continued tumor growth | apoptosis (annexin V-positive cells) [5]: marked increase in apoptosis | cell death: TUNEL staining and cleaved caspase 3 expression (mPCa-PDX tumor; mPCa-PDX, after 9 days of ISRIB treatment): increased | tumor size (mPCa-PDX tumor; mPCa-PDX, after 9 days of ISRIB treatment, P<0.01): significant tumor regression | survival (mPCa-PDX tumor; mice bearing metastatic tumor with high P-eIF2α, ISRIB 10 mg/kg, P<0.01): significantly prolonged survival | effectiveness of ISRIB treatment (survival) (pPCa-PDX tumor; pPCa tumor, ISRIB 10 mg/kg): short-lived | cell death (pPCa-PDX tumor; [6]): no significant cell death | tumor size (pPCa-PDX tumor; [6]): did not show regression but stabilized with eventual tumor regrowth | global protein synthesis (OP-Puro incorporation) (mPCa PDX): marked increase | global protein synthesis (OP-Puro incorporation) (pPCa tumors): no change | survival (mCRPC PDX; mCRPC PDX mice bearing distal metastatic lesions, P=0.01): significantly prolonged survival | metastases at distal sites by PSMA PET/CT (mCRPC PDX; mCRPC PDX mice treated with ISRIB): substantial metastatic regression | IC50 (PERK): 5 nM

From patent US12427148B2, “Cancer treatment targeted to tumor adaptive responses to protein synthesis stress” (priority 2018, dated 2025)
